Experimental findings from ChEMBL document CHEMBL4619712, “Double-component diazeniumdiolate derivatives as anti-cancer agents” (Bioorg Med Chem, 2020) are described below.

Holding throughout (type): functional, cell-based
In test [1] the test system is MDA-MB-231. Nature of the test: Anticancer activity against human MDA-MB-231 cells assessed as inhibition of cell growth after 72 hrs by MTT or MTS assay. The note with it: MDA-MB-231, 72 h.
In test [2] the test system is A549. Put plainly: Anticancer activity against human A549 cells assessed as inhibition of cell growth after 72 hrs by MTT or MTS assay. The note with it: A549, 72 h.
Test [3] deals with Jurkat E6.1. Put plainly: Anticancer activity against human Jurkat E6-1 cells assessed as inhibition of cell growth after 72 hrs by MTT or MTS assay. The note with it: Jurkat E6.1, 72 h.
Test [4] has as its system BT-474. Nature of the test: Anticancer activity against human BT474 cells assessed as inhibition of cell growth after 72 hrs by MTT or MTS assay. The note with it: BT-474, 72 h.
Test [5] relates to CCRF-CEM. Put plainly: Anticancer activity against human CCRF-CEM cells assessed as inhibition of cell growth after 72 hrs by MTT or MTS assay.

On to `CCOC(=O)N1CCN(/[N+]([O-])=N/Oc2ccc([N+](=O)[O-])cc2[N+](=O)[O-])CC1`, for which the IC50 amounted to 7.93 µM in test [1]; 2.11 µM in test [2]; 0.92 µM in test [3]; 3.66 µM in test [4]; 0.89 µM in test [5].
